In patent publication US7416741B2, “Copper lowering treatment of inflammatory and fibrotic diseases” (The Regents of the University of Michigan, priority 2002, dated 2008):

What was measured:
LEC rat model = conditions: LEC rats, late stages of liver disease; cited from earlier work
[1] = tested on: bleomycin mouse model of pulmonary fibrosis; assay: Lung hydroxyproline assay in the bleomycin mouse model of pulmonary fibrosis; type: in vivo; conditions: for Hydroxyproline: sacrifice day 21
Text: In the bleomycin mouse model, which is known to be dependent upon the TGFβ pathway, the intratracheal administration of bleomycin leads to the development of severe lung inflammation followed by fibrosis in 2-3 weeks, at which time the mice are sacrificed. Fibrosis is quantified in lung tissue by measuring hydroxyproline, a key component of the collagen that is deposited in fibrotic lung.
Mice. Female CBA/J mice at 8-10 weeks of age were from the Jackson Laboratories (Bar Harbor, Me.). These mice weighed an average of 21.4 g at the start of experiments, with a standard deviation of 1.7 g.
Bleomycin treatment. This was undertaken on day 0 by endotracheal instillation through the oral cavity after exposure of the airway by pulling the tongue. Each mouse received 0.001 units of bleomycin (Bristol-Myers, Evansville, Ind.)/gm body weight in 30 μl of sterile saline, while control mice received an equal volume of sterile saline only.
TM treatment experiments. TM was given in 0.25 ml of water by intragastric gavage once daily, in the doses and times indicated in the various studies as described below.
Hydroxyproline assay. The extent of fibrosis was assessed by assaying hydroxyproline content of whole lung homogenates at the time of sacrifice as previously described (M Gharaee-Kermani et al., J. Leukoc. Biol., 64:657-666 [1998]). Results are expressed as μg hydroxyproline/lung (the lung tissue included both lungs).
Hydroxyproline assay. The extent of fibrosis was assessed by assaying hydroxyproline content of whole-lung homogenates at the time of sacrifice as described in Gharaee-Kermani, et al., J. Leukoc. Biol., 64:657-666 (1998). Hydroxyproline was expressed as micrograms of hydroxyproline per mouse lung (the lung tissue included both lungs).

rodent cancer models = conditions: five different rodent cancer models; cited from earlier work
TNFα = assay: Plasma TNFα in Con A treated mice; type: in vivo, mouse; conditions: Ex 5 Exp 3; TM from 5 days before first of two Con A injections; 2 hrs after last; p=0.03
Text: In a third experiment, two Con A injections one week apart were given to 10 mice. Five of the mice had begun TM treatment 5 days prior to the first injection. All the mice were sacrificed 2 hrs after the last Con A injection.

serum ceruloplasmin (Cp) = assay: Copper status by serum ceruloplasmin (oxidase activity) in mice; type: in vivo, mouse; conditions: for Ceruloplasmin Values: Ex 1 Exp 2
Text: Copper status. In the presence of TM therapy, copper status is difficult to assess by measuring serum copper directly, since a slowly turning over tripartite complex of TM, copper, and albumin accumulates, causing the serum copper to be elevated even though availability of copper is decreasing. However, the inventors have previously determined that serum ceruloplasmin (Cp) is a good surrogate marker of copper status (G J Brewer et al., Clin. Cancer, 6: 1-10 [2000]), because the liver secretes this copper containing protein into the blood at a rate dependent upon copper availability. Copper status was followed by assaying serum ceruloplasmin (Cp), by measuring its oxidase activity (K H Schosinsky et al., Clin. Chem., 20(12)1556-1563 [1974]). Blood was obtained from the tail vein of the mice. To avoid excessive bleeding, only one mouse from each group was bled at any time point during the study, and mice were rotated so that different mice were bled at the different time points. A Cp assay in all mice was done at time of sacrifice.
Copper status. In the presence of TM therapy, copper status cannot be assessed by direct measurement of serum copper because of the accumulation of a tripartite complex of TM, copper, and albumin that turns over slowly, causing the serum copper to be increased even though availability of copper is decreasing. […] Copper status was monitored by assaying serum ceruloplasmin on the basis of its oxidase activity in blood from the tail vein. To avoid excessive bleeding, one mouse from each group was bled at each time point; mice were rotated so that different mice were bled. A ceruloplasmin assay was conducted in each mouse when it was killed.

SMILES: [SH-].[SH-].[S]=[Mo]=[S] [TM, tetrathiomolybdate]
- efficacy against copper toxicity / liver disease (LEC rat model): very effective
- Hydroxyproline ([1]; Ex 1 Exp 1, Bleomycin/TM group): 162 ± 12 μg/lung
- fibrosis as measured by hydroxyproline assay ([1]; Ex 1 Exp 1, TM before bleomycin): almost completely abrogated fibrosis
- Hydroxyproline ([1]; Ex 1 Exp 1, TM only group): 193 ± 5 μg/lung
- Hydroxyproline (Mean ± SE) ([1]; Ex 1 Exp 2, Bleomycin Group, 0.3 mg TM/mouse/day, day 21): 232 ± 4 μg hydroxyproline/lung
- Hydroxyproline (Mean ± SE) ([1]; Ex 1 Exp 2, Bleomycin Group, 0.5 mg TM/mouse/day, day 21): 197 ± 15 μg hydroxyproline/lung
- Hydroxyproline (Mean ± SE) ([1]; Ex 1 Exp 2, Bleomycin Group, 0.7 mg TM/mouse/day, day 21): 172 ± 22 μg hydroxyproline/lung
- Hydroxyproline (Mean ± SE) ([1]; Ex 1 Exp 2, Bleomycin Group, 0.9 mg TM/mouse/day, day 21): 157 ± 14 μg hydroxyproline/lung
- Hydroxyproline (Mean ± SE) ([1]; Ex 1 Exp 2, Control Group (Saline only), 0.3 mg TM/mouse/day): 132 ± 3 μg hydroxyproline/lung
- Hydroxyproline (Mean ± SE) ([1]; Ex 1 Exp 2, Control Group (Saline only), 0.5 mg TM/mouse/day): 130 ± 5 μg hydroxyproline/lung
- Hydroxyproline (Mean ± SE) ([1]; Ex 1 Exp 2, Control Group (Saline only), 0.7 mg TM/mouse/day): 152 ± 10 μg hydroxyproline/lung
- Hydroxyproline (Mean ± SE) ([1]; Ex 1 Exp 2, Control Group (Saline only), 0.9 mg TM/mouse/day): 130 ± 8 μg hydroxyproline/lung
- protection against bleomycin-induced fibrosis as measured by hydroxyproline accumulation ([1]; Ex 1 Exp 2, TM 0.3 to 0.9 mg): dose dependent
- effect of TM treatment alone on hydroxyproline levels ([1]; Ex 1 Exp 2, no bleomycin): no effect of TM treatment alone on hydroxyproline levels
- hydroxyproline production ([1]; Ex 1 Exp 3, TM given before bleomycin or started at day 4 or 7 after, 1.2 then 0.9 mg/mouse/day): significant suppression of hydroxyproline production
- effect of TM alone on hydroxyproline levels ([1]; Ex 1 Exp 3, no bleomycin): no effect of TM alone on hydroxyproline levels
- lung hydroxyproline levels, bleomycin-induced increase ([1]; Ex 2 Exp 2, TM from day 5, day 21): completely and significantly inhibited the increase
- inhibition of tumor growth (rodent cancer models): dramatic effects on inhibition of tumor growth
- Plasma levels of TNFα (TNFα): significantly lower
- Ceruloplasmin (serum ceruloplasmin (Cp); Ex 1 Exp 1, Bleomycin/TM group, sacrifice day 21): 13.9 ± 3.3 I.U
- mean ceruloplasmin relative to saline controls (serum ceruloplasmin (Cp); Ex 1 Exp 1, TM alone (group 4)): about 80%
- Ceruloplasmin (serum ceruloplasmin (Cp); Ex 1 Exp 1, TM only group, sacrifice day 21): 18.1 ± 3.4 I.U
- mean ceruloplasmin level relative to bleomycin animals (serum ceruloplasmin (Cp); Ex 1 Exp 1, bleomycin/TM mice (group 3)): about 55%
- Ceruloplasmin Values (serum ceruloplasmin (Cp); TM 0.3 mg/day/mouse, day 14, single mouse): 23.6 International Units
- Ceruloplasmin Values (serum ceruloplasmin (Cp); TM 0.3 mg/day/mouse, day 21 (sacrifice), mean and standard error of four mice): 5.4 ± 2.7 International Units
- Ceruloplasmin Values (serum ceruloplasmin (Cp); TM 0.5 mg/day/mouse, day 8, single mouse): 14.4 International Units
- Ceruloplasmin Values (serum ceruloplasmin (Cp); TM 0.5 mg/day/mouse, day 14, single mouse): 10.6 International Units
- Ceruloplasmin Values (serum ceruloplasmin (Cp); TM 0.5 mg/day/mouse, day 21, mean and SE of four mice): 4.5 ± 2.7 International Units
- Ceruloplasmin Values (serum ceruloplasmin (Cp); TM 0.7 mg/day/mouse, day 8, single mouse): 12.6 International Units
- Ceruloplasmin Values (serum ceruloplasmin (Cp); TM 0.7 mg/day/mouse, day 14, single mouse): 15.5 International Units
- Ceruloplasmin Values (serum ceruloplasmin (Cp); TM 0.7 mg/day/mouse, day 21, mean and SE of four mice): 4.7 ± 2.2 International Units
- Ceruloplasmin Values (serum ceruloplasmin (Cp); TM 0.9 mg/day/mouse, day 8, single mouse): 0.6 International Units
- Ceruloplasmin Values (serum ceruloplasmin (Cp); TM 0.9 mg/day/mouse, day 14, single mouse): 3.7 International Units
- Ceruloplasmin Values (serum ceruloplasmin (Cp); TM 0.9 mg/day/mouse, day 21, mean and SE of four mice): 1.8 ± 0.7 International Units
- Ceruloplasmin Values (serum ceruloplasmin (Cp); TM maintenance 0.3 mg/day/mouse, day 8, single mouse): 20.3 International Units
- mean Cp levels in TM treated groups relative to non-TM treated groups (serum ceruloplasmin (Cp); Ex 2 Exp 1, TM 1.2 mg/day 4 days before bleomycin then 0.9 mg/day, sacrifice day 7): approximately half
- mean Cp level of bleomycin/TM group as % of the bleomycin group mean (serum ceruloplasmin (Cp); Ex 2 Exp 2, TM started 5 days after bleomycin, sacrifice day 21): 38%
- mean Cp of TM control group as % of the saline control group mean (serum ceruloplasmin (Cp); Ex 2 Exp 2, sacrifice day 21): 50%
- serum Cp levels relative to baseline levels (serum ceruloplasmin (Cp); daily gavage of 0.7 mg TM/mouse): 25-50%
